Results as given in US12565489B2, “Heterocyclyl pyrimidines and triazines as novel fungicides” (Bayer Aktiengesellschaft, priority 2020, dated 2026).

How the values were obtained:
[1] = Measurement of Log P values by HPLC on reversed phase columns (EEC directive 79/831 Annex V.A8); type: physicochemical; settings: LogP
Procedure, shortened: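 Calibration used straight-chain alkan-2-ones (3 to 16 carbons) of known Log P, interpolating linearly between retention times. Values come from reversed-phase LC-UV (EEC 79/831 Annex V.A8), 10% to 95% acetonitrile gradient against 0.1% formic acid, 0.001 molar ammonium acetate, or 0.1% phosphoric acid.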

Botrytis cinerea = Botrytis cinerea in vitro cell test; type: cell-based; settings: 144 h, 20 ppm of active ingredient, 6 days incubation, liquid culture, spectrometric measurement of mycelium growth, read-out: efficacy (inhibition of fungal growth)
Experimental: • Solvent: DMSO • Culture medium: 1 g KH2PO4 (VWR), 1 g K2HPO4 (VWR), 0.5 g Urea (VWR), 3 g KNO3 (Prolabo), 10 g saccharose (VWR), 0.5 g MgSO4, 7H2O (Sigma), 0.07 g CaCl2, 2H2O (Prolabo), 0.2 mg MnSO4, H2O (Sigma), 0.6 mg CuSO4, 5H2O (Sigma), 7.9 mg ZnSO4, 7H2O (Sigma), 0.1 mg H3BO3 (Merck), 0.14 mg NaMoO4, 2H2O (Sigma), 2 mg thiamine (Sigma), 0.1 mg biotine (VWR), 4 mg FeSO4, 7H2O (Sigma), QSP 1 liter • Inoculum: spore suspension Fungicides were solubilized in DMSO and the solution used to prepare the required range of concentrations. […] A spore suspension of B. cinerea was prepared and diluted to the desired spore density. Fungicides were evaluated for their ability to inhibit spore germination and mycelium growth in liquid culture assay. The compounds were added in the desired concentration to the culture medium with spores. After 6 days incubation, fungi-toxicity of compounds was determined by spectrometric measurement of mycelium growth. Inhibition of fungal growth was determined by comparing the absorbance values in wells containing the fungicides with the absorbance in control wells without fungicides.

Structure (SMILES) | chromatographic logP [1] | inhibition at 20 ppm (Botrytis cinerea) [%]
C#Cc1cccc(Oc2cnc(C)nc2C2=NOC[C@@H](Cc3ccc(C)cc3C)N2)c1 (racemic) [Compound I-025] | 3.85 | 90 to 100
Cc1ncc(Oc2cccc(C(F)(F)F)c2)c(C2=NOCC(Cc3ccc(C4CC4)cc3C)N2)n1 (racemic) [Compound I-029, (5RS)-5-[(4-cyclopropyl-2-methyl-phenyl)methyl]-3-[2-methyl-5-[3-(trifluoromethyl)phenoxy]pyrimidin-4-yl]-5,6-dihydro-4H-1,2,4-oxadiazine] | 4.7 | 90 to 100
Cc1ccc(C[C@@H]2CON=C(c3nc(C)ncc3Oc3cccc(C4CC4)c3)N2)c(C)c1 (racemic) [Compound I-024] | 4.55 | 90 to 100
Cc1ccc(C[C@@H]2CON=C(c3nc(C)ncc3Oc3cccc(Cl)c3)N2)c(Cl)c1 (racemic) [Compound I-018] | 4.22 | 90 to 100
CSc1ncc(Oc2cccc(C(F)(F)F)c2)c(C2=NOC[C@@H](Cc3ccc(C)cc3C)N2)n1 (racemic) [Compound I-017] | 5.09 | 90 to 100
C=Cc1cccc(Oc2cnc(C)nc2C2=NOC[C@@H](Cc3ccc(C)cc3C)N2)c1 (racemic) [Compound I-019] | 4.09 | 90 to 100
Cc1cccc(Oc2cnc(C)nc2C2=NOC[C@@H](Cc3ccc(C)cc3C)N2)c1 (racemic) [Compound I-004] | 3.95 | 90 to 100
Cc1ncc(Oc2cccc(C(F)(F)F)c2)c(C2=NOC[C@@H](Cc3ccc(SC(F)(F)F)cc3)N2)n1 (racemic) [Compound I-030] | 4.62 | 90 to 100
Cc1ccc(C[C@@H]2CON=C(c3nc(C)ncc3Oc3cccc(C4CC4)c3F)N2)c(Cl)c1 (racemic) [Compound I-008] | 4.49 | 90 to 100
Cc1ccc(C[C@@H]2CON=C(c3nc(C)ncc3Oc3cccc(Br)c3)N2)c(C)c1 (racemic) [Compound I-009] | 4.44 | 90 to 100
Cc1ccc(C[C@@H]2CON=C(c3nc(C)ncc3Oc3cccc(C(F)(F)F)c3)N2)c(Cl)c1 (racemic) [Compound I-013] | 4.47 | 90 to 100
Cc1ccc(C[C@@H]2CON=C(c3nc(C)ncc3Oc3cccc(Cl)c3)N2)c(C)c1 (racemic) [Compound I-023] | 4.15 | 90 to 100
COc1cccc(Oc2cnc(C)nc2C2=NOC[C@@H](Cc3ccc(C)cc3C)N2)c1 (racemic) [Compound I-032] | 3.66 | 90 to 100
Cc1ccc(CC2CON=C(c3nc(C4CC4)ncc3Oc3cccc(C(F)(F)F)c3)N2)c(C)c1 (racemic) [Compound I-001, (5RS)-3-{2-cyclopropyl-5-[3-(trifluoro-methyl)phenoxy]pyrimidin-4-yl}-5-(2,4-dimethylbenzyl)-5,6-dihydro-4H-1,2,4-oxadiazine] | 5.16 | 90 to 100
Cc1ccc(C[C@@H]2CON=C(c3nc(C)ncc3Oc3cccc(Cl)c3F)N2)c(Cl)c1 (racemic) [Compound I-005] | 4.19 | 90 to 100
Cc1ccc(C[C@@H]2CON=C(c3nc(C)ncc3Oc3cccc(C4CC4)c3F)N2)c(C)c1 (racemic) [Compound I-016] | 4.41 | 90 to 100
C#Cc1ccc(CC2CON=C(c3nc(C)ncc3Oc3cccc(C(F)(F)F)c3)N2)c(C)c1 (racemic) [Compound I-026, (5RS)-5-[(4-ethynyl-2-methyl-phenyl)methyl]-3-[2-methyl-5-[3-(trifluoromethyl)phenoxy]pyrimidin-4-yl]-5,6-dihydro-4H-1,2,4-oxadiazine] | 3.99 | 90 to 100
Cc1ncc(Oc2cccc(C(F)(F)F)c2)c(C2=NOC[C@@H](Cc3ccc(C(F)F)cc3Cl)N2)n1 (racemic) [Compound I-033] | 4.02 | 90 to 100
C=Cc1ccc(C[C@@H]2CON=C(c3nc(C)ncc3Oc3cccc(C(F)(F)F)c3)N2)c(C)c1 (racemic) [Compound I-006] | 4.44 | 90 to 100
Cc1ccc(CC2CON=C(c3nc(C)ncc3Oc3cccc(C(F)(F)F)c3)N2)c(C)c1 (racemic) [Compound I-002, (5RS)-5-(2,4-dimethylbenzyl)-3-{2-methyl-5-[3-(trifluoro-methyl)phenoxy]pyrimidin-4-yl}-5,6-dihydro-4H-1,2,4-oxadiazine] | 4.33 | 90 to 100
Cc1ncc(Oc2cccc(C(F)(F)F)c2)c(C2=NOCC(Cc3ccc(Br)cc3C)N2)n1 (racemic) [Compound I-021, (5RS)-5-[(4-bromo-2-methyl-phenyl)methyl]-3-[2-methyl-5-[3-(trifluoro-methyl)phenoxy]pyrimidin-4-yl]-5,6-dihydro-4H-1,2,4-oxadiazine] | 4.48 | 90 to 100
